In patent publication US9241887B2, “Systems and methods for skin rejuvenation” (Sesvalia USA, LLC, priority 2009, dated 2016):

Legend:
[1] = Antioxidant activity of active ingredients alone and combined (FIG. 1); conditions: for antioxidant activity relative to vehicle: ingredient alone, control = vehicle (mixture of ethanol and macrogol); for synergistic effect on antioxidant activity: ingredients combined; for antioxidant activity when combined with Vitamin C and Vitamin E: polyphenol derivatives combined with Vitamin C and Vitamin E
[2] = phospholipidic membranes; cited from earlier work
human skin = conditions: cited from earlier work
[3] = cited from earlier work
[4] = system: human polymorphonuclear leukocytes; conditions: cited from earlier work
mild atopic dermatitis = conditions: 0.3% rosmarinic acid emulsion, topical application; cited from earlier work
[5] = gastrointestinal tract and skin; cited from earlier work
[6] = system: human keratinocyte cell lines; conditions: cited from earlier work
[7] = system: seasonal allergic rhinoconjunctivitis; conditions: oral supplementation; cited from earlier work

## O=C1O[C@H]([C@@H](O)CO)C(O)=C1O [Vitamin C, ascorbic acid]
[1]
  antioxidant activity relative to vehicle: more than twice as much antioxidant activity as the vehicle
  synergistic effect on antioxidant activity: synergistic effect

## O=C(O)/C=C/c1ccc(O)c(O)c1 [caffeic acid, 3,4-dihydroxycinnamic acid]
[1]
  antioxidant activity when combined with Vitamin C and Vitamin E: stronger antioxidant activity (more than twice)
[2]
  protection from UV-induced peroxidation: protect phospholipidic membranes from UV-induced peroxidation
Human skin
  protection from UVB-induced erythema: protect human skin from UVB-induced erythema

## COc1cc(/C=C/C(=O)O)ccc1O [ferulic acid, Ferulic acid]
[1]
  synergistic effect on antioxidant activity: synergistic effect
  antioxidant activity when combined with Vitamin C and Vitamin E: stronger antioxidant activity (more than twice)
[3]; acidic pH
  behaviour at acidic pH: precipitates into crystals

## O=C(CCc1ccc(O)cc1)c1c(O)cc(O)cc1O [phloretin, Phloretin]
[1]
  synergistic effect on antioxidant activity: synergistic effect
  antioxidant activity when combined with Vitamin C and Vitamin E: stronger antioxidant activity (more than twice)
[3]
  solubility in ethanol: very soluble in ethanol
  solubility in water: insoluble in water

## O=C(/C=C/c1ccc(O)c(O)c1)O[C@H](Cc1ccc(O)c(O)c1)C(=O)O [rosmarinic acid, alpha-o-caffeoyl-3,4-dihydroxyphenyl lactic acid]
[1]
  antioxidant activity when combined with Vitamin C and Vitamin E: stronger antioxidant activity (more than twice)
[4]
  leukotriene B4 production: reduce leukotriene B4 production
  prostaglandin E2 production: augment prostaglandin E2 production
Mild atopic dermatitis
  symptoms of mild atopic dermatitis: improves some symptoms of the disease including the erythema, transepidermal water loss, xerosis and pruritus
[5]
  absorption: well absorbed through the gastrointestinal tract and the skin
[6]
  photoprotective effect against UVA-induced alterations: photoprotective effects against alterations induced by UVA exposure
[7]
  treatment of seasonal allergic rhinoconjunctivitis: effective treatment for seasonal allergic rhinoconjunctivitis

## Vitamin E
[1]
  antioxidant activity relative to vehicle: more than twice as much antioxidant activity as the vehicle
